Data set [1] concerns Human Telomeric G-Quadruplex DNA d(T2AG3)4. Nature of the data set: UV melting, thermal stabilization of G-quadruplex DNA (Test A). The note with it: pH 7.5, 50 mM K+; Tm of the drug-DNA complex minus that of the DNA alone; absorbance at 295 nm. The data set is classed as binding. The source says:
(§1) Test A. Selective Stabilization of G-Quadruplex DNA Analyses can be performed to determine the ability of the compounds to selectively bind and thermally stabilize quadruplex relative to duplex DNA. Toward this end, the UV absorbances of the DNA molecules are monitored as a function of temperature in the absence and presence of compound. The melting of duplex DNA is generally associated with a hyperchromic shift at 260 nm, while the melting of quadruplex DNA is associated with a hypochromic shift at 295 nm. Thus, the temperature-dependent absorbances of duplex DNA are monitored at 260 nm, with the corresponding quadruplex absorbances being monitored at 295 nm. Salmon testes DNA can be used as a representative model of duplex DNA and d([…])4 can be used as a representative model of quadruplex DNA. All UV melting studies are conducted at physiological pH (7.4) in the presence of potassium ions at physiologically relevant concentrations. Representative compounds of formula I (compounds 6, 32, and 33) were evaluated for their abilities to selectively bind and stabilize G-quadruplex relative to duplex DNA. […] By contrast, none of the compounds exert any impact on the thermal stability of the DNA duplex (ΔTm=0° C. for all three compounds).

Data set [2] deals with Salmon Testes Duplex DNA. Kind of data set: UV melting, thermal stabilization of duplex DNA (Test A). The data set is classed as binding. The note with it: pH 7.5, 50 mM K+; Tm of the drug-DNA complex minus that of the DNA alone; absorbance at 260 nm.
Source text: as §1

Data set [3] relates to KB3-1 human epidermoid carcinoma tumor cells. Kind of data set: MTT cytotoxicity assay (Test B). The data set is classed as cell-based. The conditions noted are these: KB 3-1, 96 h, cells cultured 4 days. The source says:
(§2) Test B. Evaluation of G-Quadruplex Stabilizers using the MTT Assay.
(§3) Cell lines are selected based upon one or more factors including data on their relative telomerase activity, varied organ sites, available comparative data, and their ability to form solid tumors in athymic nude mice. The advantage of an MTT assay is that the cytotoxic/cytostatic activities can be readily determined.

Data set [4] concerns human lymphoblastoma cell line RPMI 8402. Nature of the data set: MTT cytotoxicity assay (Test B). In kind it is cell-based. The note with it: RPMI 8402, 96 h, cells cultured 4 days.
Source text: as §2, §3

The test system of data set [5] is MDA-MB-435 human tumor xenografts (human melanoma cells). Nature of the data set: Human tumor xenograft athymic nude mouse model (Test C). The data set is classed as in vivo, female NCR/NU NU mice. The conditions noted are these: ip injection; athymic nude mice; tumor volume. The method, then:
Test C. Evaluation of G-Quadruplex Stabilizers in the Human Tumor Xenograft Athymic Nude Mouse Model.
Compound 33 inhibited the growth of MDA-MD-435 human tumor xenografts (developed from human melanoma cells) in vivo by more than 50% when administered by ip injection. Bioassays were performed using female NCR/NU NU mice of approximately 9 weeks of age as obtained from Taconic Farms, Inc. (Germantown, N.Y., USA). Mice were housed 4 per cage in laminar flow HEPA filtered microisolator caging (Allentown Caging Equipment Co., Allentown, N.J., USA). Mice were fed Purina autoclavable breeder chow #5021 and given drinking water, purified by reverse-osmosis, ad libitum. Five days after arrival within the animal facility, the mice were inoculated on the right flank with 1.5×10^6 MDA-MB-435 tumor cells in 0.1 mL of RPMI 1640 Media by sc injection (25 gauge needle×⅝″). The MDA-MB-435 cells were grown in 75 cm^2 flasks using RPMI 1640 Media and 10% fetal bovine serum. Tumors were of sufficient size at 19-20 days after inoculation. Tumor-bearing mice were evenly matched in each experimental group based on tumor volume. Tumor volume was calculated by measuring the tumor with a microcaliper. The length (l) is the maximum two dimensional distance of the tumor and the width (w) is the maximum distance perpendicular to this length measured in mm. Tumor volume was calculated using the formula (l*w^2)/2.
In general terms: In xenograft studies the graft and the host belong to different species.

In data set [6] the target is telomerase. The note with it: read-out: telomerase inhibitory activity IC50; cited from earlier work.
The subject of data set [7] is SK-N-AS. The note with it: human neuroblastoma cell line; read-out: cytotoxicity IC50 SK-N-AS; cited from earlier work.
For data set [8], the system named is LAN5. The conditions noted are these: human neuroblastoma cell line; read-out: cytotoxicity IC50 LAN5; cited from earlier work.
Data set [9] has as its system WAC2. The note with it: human neuroblastoma cell line; read-out: cytotoxicity IC50 WAC2; cited from earlier work.
Data set [10] has as its system LAN1. The note with it: human neuroblastoma cell line; read-out: cytotoxicity IC50 LAN1; cited from earlier work.
Data set [11] deals with MiaPaCa. The note with it: human pancreatic carcinoma; read-out: cytotoxicity IC50 MiaPaCa; cited from earlier work.
Data set [12] concerns HBC-4, BSY-1, HBC-5, MCF-7, and MDA-MB-231. The conditions noted are these: range over HBC-4, BSY-1, HBC-5, MCF-7, MDA-MB-231; read-out: GI50 against human breast cancer cell lines; cited from earlier work.

The structures appear in SMILES notation.

One may read the IC50 as the concentration that gives 50% inhibition. For orientation: melting point means the temperature of the solid-liquid transition. On to `CN(C)CCc1cc2cc(c1)CNC(=O)c1coc(n1)-c1coc(n1)-c1cccc(n1)-c1nc(co1)-c1nc(co1)C(=O)NC2` [Compound 33], for which the melting point was 295 °C (dec.). Further, the “Human Telomeric G-Quadruplex DNA ΔTm” value in [1] came to 31.5 °C. The “Salmon Testes Duplex DNA ΔTm” value in data set [2] stood at 0 °C. Also, half-maximal inhibition in data set [3] (IC50) was put at 40 nM. The molecule further had a 50% inhibitory concentration (IC50) in data set [4] of 180 nM. The “inhibition of growth of human tumor xenografts in vivo” value in data set [5] is reported as “more than 50%”.

For the molecule `Cc1oc2nc1-c1nc(co1)-c1nc(co1)-c1nc(co1)-c1nc(co1)-c1nc(co1)C1=NC(CS1)c1nc-2c(C)o1` (stereo not shown) [Telomestatin], the IC50 was 5 nM in data set [6]; 800 nM in [7]; 2500 nM in data set [8]; 3200 nM in data set [9]; 4000 nM in data set [10]; 500 nM in data set [11].

A word on the GI50: it is the concentration at which growth is held to half of that of the control. For the molecule `CC[C@H](C)[C@@H]1NC(=O)c2nc(oc2-c2ccccc2)-c2csc(n2)-c2coc(n2)-c2coc(n2)-c2coc(n2)CNC(=O)[C@@H](C(C)C)NC1=O` [YM-216391], the 50% growth inhibitory concentration (GI50) in data set [12] is 15 to 33 nM.
